We go through six compounds from patent publication US8470870B2, “Solid forms of an anti-HIV phosphoindole compound” (Idenix Pharmaceuticals, Inc., priority 2008, dated 2013).

Usually solubility (kinetic) stands for the concentration staying in solution when a stock, usually in DMSO, is diluted into the medium. For orientation: solubility means how much of the substance goes into solution per volume.

Data set [1] can be described thus: Form I/Form VIII competitive slurry in water-methanol mixtures. The data set is classed as physicochemical. How it is done: Additional competitive slurry experiments were performed by mixing excess amounts of polymorphic forms in a solvent system and agitating the mixture isothermally. The competitive slurry experiments were used in attempts to identify the critical water activity levels for the interconversion of Form I (anhydrate target form) and Form VIII (monohydrate form). This was used to identify the water content range that can be used during processing to successfully isolate Form I in a reproducible manner. In each competitive slurry experiment, an excess of Form I and Form VIII of known weight was added to a water-methanol mixture. The suspension was slurred at ambient temperature (22° C.) or 45° C. continuously for up to 12 days in order to obtain thermodynamic equilibrium. Excess solids were collected at different slurry times by centrifugation, and then characterized by XRD. To avoid possible desolvation or physical change after isolation, the samples were not subjected to drying before X-ray analysis.

Data set [2] is described as follows: Solubility in water (preliminary, in words). The data set is classed as physicochemical. The protocol:
(§1) Milligram size quantities of each sample were placed into a vial. Solvent was added and the vials were vortexed for a few minutes, followed by visual observation for remaining solids. The solvent was incrementally added until the solids were dissolved, or a maximum volume of solvent was added and the experiment was terminated. Parallel to that, a suspension is made and filtered, the solids was examined by XRD to determine if a phase transformation occurs. Solubility experiments were performed to determine the solubility of the different polymorphic forms. […] Solubility data were collected on polymorphs I, VIII, and IX. Two of the forms were anhydrous and one was hydrated.

The nature of data set [3]: Non-competitive slurry experiments in neat solvents. The data set is classed as physicochemical. How it is done: Noncompetitive slurry experiments were performed. These experiments rely on solubility differences of different polymorphic forms (if the compound exists in different polymorphic forms). […] Essentially, when a solid is dissolved in a (slurry) solvent, a saturated solution eventually results. The solution is saturated with respect to the polymorphic form dissolved. […] In addition, noncompetitive slurry experiments are often useful in identifying solvents that form solvates with the compound. […] The solids were mechanically filtered and analyzed by XRD to determine the resulting form. To avoid possible desolvation or physical change after isolation, the samples were not subjected to drying before X-ray analysis.

A short description of data set [4]: Apparent kinetic solubility in 2-butanol of different crystalline forms. The data set is classed as physicochemical. The following applies: dry 2-butanol; for Apparent Kinetic Solubility: 25° C.; for relative solubility among Forms I, VIII and IX: ambient temperature. The protocol:
as §1, with “hydrated. […] Excess solids were placed in a test tube, solvent was then added in the tube, vortexed, and examined visually to determine if all the solids had dissolved. Attempts were made to prepare saturated or nearly saturated solutions of each polymorphic form by exposing excess solids of each polymorph to dry 2-butanol.” for “hydrated.”

Data set [5] is described as follows: Hydration experiment at 95% RH. The data set is classed as physicochemical. The note with it: 18 days. How it is done: Hydration experiments were performed on (2-carbamoyl-5-chloro-1H-indol-3-yl)-[3-((E)-2-cyano-vinyl)-5-methyl-phenyl]-(R)-phosphinic acid methyl ester Form III sample. A known weight of sample was exposed to a 95% RH environment using a saturated solution of […].

A further data set is described as follows: Annealing experiment. The note with it: 14 days at 46° C. The data set is classed as physicochemical. How it is done:
In addition to the solvent recrystallization experiments and slurry experiments, annealing experiments were performed. These experiments entailed looking for structural changes as a function of temperature. This was accomplished by using variable-temperature XRD, and variable temperature ovens, and DSC experiments.

The nature of data set [6]: Competitive slurry experiments. The data set is classed as physicochemical. The protocol:
Competitive slurry experiments were performed by mixing excess amounts of the polymorphic forms together in different solvents and agitating isothermally. These types of slurry experiments were used in attempts to determine which phase is more thermodynamically stable under the conditions used. Slurry experiments were generally used to examine the energy relationship between Form I and Form IX, and to examine how these two forms may interconvert with the monohydrate (Form VIII).

Data set [7] in a line: Solubility in recrystallization solvents (Panel 1). The data set is classed as physicochemical. The note with it: organic solvent or mixture, thermodynamic from solid, saturation temp. 25 °C. How it is done: Milligram size quantities of each sample were placed into a vial. Solvent was added and the vials were vortexed for a few minutes, followed by visual observation for remaining solids. The solvent was incrementally added until the solids were dissolved, or a maximum volume of solvent was added and the experiment was terminated. Parallel to that, a suspension is made and filtered, the solids was examined by XRD to determine if a phase transformation occurs. Saturated solutions were prepared by agitating excess test material in contact with the various solvent systems at the saturation temperature. The mother liquor was separated from the residual solids by filtration. The mother liquor was then heated above the saturation temperature (overheated) to dissolve any remaining solids. The temperature of the solutions was then adjusted to the growth temperature and a controlled nitrogen shear flow was introduced to begin solvent evaporation.

Data set [8] deals with several serine proteases like S. griseus proteases A and B, α-chymotrypsin, chymase, and subtilisin. The following applies: cited from earlier work.

Converted amounts (≈) assume the structure as drawn.

`CO[P@](=O)(c1cc(C)cc(/C=C/C#N)c1)c1c(C(N)=O)[nH]c2ccc(Cl)cc12` [Form I, (2-carbamoyl-5-chloro-1H-indol-3-yl)-[3-((E)-2-cyano-vinyl)-5-methyl-phenyl]-(R)-phosphinic acid methyl ester]: the “water content level needed to stabilize Form I (anhydrate)” value in data set [1] is at most 24 wt %. Moreover, in data set [2], the solubility in water entry is “practically insoluble”. Moreover, the “XRD pattern after slurry in water” value in [3] (water, ambient temperature and 50° C., up to 6 days) is on record as “did not show changes in XRD pattern”. Moreover, the “Apparent Kinetic Solubility” value in data set [4] (listed as I) came to 1810 µg/mL. Moreover, in [4], the “relative solubility among Forms I, VIII and IX” value is “highest solubility”.

Consider `CO[P@](=O)(c1cc(C)cc(/C=C/C#N)c1)c1c(C(N)=O)[nH]c2ccc(Cl)cc12` [Form III], for which, in data set [3] (neat methanol, about 1 day, ambient temperature), the “form after slurry (ripening) in methanol” value is given as “converted to Form I”. The “form after non-competitive slurry in water” value in data set [3] (water, 3 days) is “resulted in Form VIII”. For the same compound, in data set [5], the “XRD pattern after exposure to humidity” value was “no changes in XRD pattern”. In addition, the “XRD pattern after annealing” value in “Annealing experiment” is listed as “no change in the XRD pattern”.

As for `COP(=O)(c1cc(C)cc(/C=C/C#N)c1)c1c(C(N)=O)[nH]c2ccc(Cl)cc12` (stereo not shown) [Form IX, (2-carbamoyl-5-chloro-1H-indol-3-yl)-[3-((E)-2-cyano-vinyl)-5-methyl-phenyl]phosphinic acid methyl ester], in data set [6] (ambient temperature and pressure), the “thermodynamic stability among forms” value is on record as “most stable form”. Besides, in data set [6] (water, several days), the “form after slurry in water” value is given as “remained unchanged”. For the same compound, in data set [4] (25 °C, organic solvent or mixture, thermodynamic from solid), the kinetic solubility is 160 µg/mL (≈ 387 µM). Besides, in data set [4], the “relative solubility among Forms I, VIII and IX” value is reported as “lowest solubility”.

With `CO[P@](=O)(c1cc(C)cc(/C=C/C#N)c1)c1c(C(N)=O)[nH]c2ccc(Cl)cc12` [Form VIII, (2-carbamoyl-5-chloro-1H-indol-3-yl)-[3-((E)-2-cyano-vinyl)-5-methyl-phenyl]-(R)-phosphinic acid methyl ester], the “critical water activity level for Form I/Form VIII interconversion” value in data set [6] (methanol/water bridging experiments) is given as 40-60 vol % water. In addition, the “Apparent Kinetic Solubility” value in [4] (listed as VIII) came out at 310 µg/mL.

For the compound `CO[P@](=O)(c1cc(C)cc(/C=C/C#N)c1)c1c(C(N)=O)[nH]c2ccc(Cl)cc12` [compound of Formula I, (2-carbamoyl-5-chloro-1H-indol-3-yl)-[3-((E)-2-cyano-vinyl)-5-methyl-phenyl]-(R)-phosphinic acid methyl ester], the solubility is around 2670 µg/mL in data set [7] (1-propanol); below 2670 µg/mL in data set [7] (2-butanol); below 2670 µg/mL in data set [7] (2-propanol); 3640 µg/mL in data set [7] (ethanol); 10000 µg/mL in data set [7] (methanol); 5710 µg/mL in data set [7] (nitromethane).

Consider Eglin c, for which, in data set [8], the potency of inhibition result is “nanomolar potency inhibition”.
